MIC and ED50 data for three compounds are collected here from US5143911A, “Antibiotic C-3 di-hydroxyphenyl substituted cephalosporin compounds, compositions and method of use thereof” (Bristol-Myers Squibb Company, priority 1990, dated 1992).

Assay [1] has as its system B. fragilis A 22533. The assay is described as follows: In vitro activity against anaerobes (MIC), two-fold serial agar dilution, GAM agar. The class given is cell-based. The following applies: Bacteroides fragilis, A22533, Gn, Beta-Lactamase(+). For orientation: In agar dilution the substance is mixed into plates at graded concentrations.
The test system of assay [2] is PCresistant S. aureus. The assay is described as follows: MIC, two-fold serial agar dilution, Mueller-Hinton agar (geometric mean, group Gp-Ib). The assay is classed as cell-based. Particulars: Staphylococcus aureus, penicillin-resistant S. aureus, 5 strains. On the procedure:
(§1) For a primary evaluation of some representative compounds of this invention, minimum inhibitory concentrations (MIC's) were determined against 32 strains of test organisms by two-fold serial agar dilution method in Mueller-Hinton agar.
GpIb: PCresistant S. aureus

Assay [3] relates to S. aureus Smith. Particulars: Staphylococcus aureus, in Mus musculus, im, read-out: PD50.
Assay [4] relates to B. fragilis A 22021. The assay is described as follows: In vitro activity against anaerobes (MIC), two-fold serial agar dilution, GAM agar. The class given is cell-based. The following applies: Bacteroides fragilis, A22021, Gn, Beta-Lactamase(-).
Assay [5] relates to B. fragilis A 22693. The description is as above. The following applies: Bacteroides fragilis, A22693, Gn, Beta-Lactamase(-). The assay is classed as cell-based.
Assay [6] deals with B. fragilis A 22053. The assay is described as above. Particulars: Bacteroides fragilis, A22053, Gn, Beta-Lactamase(-). The class given is cell-based.
Assay [7] concerns P. aeruginosa 9843A. The assay is described as follows: MIC against the infecting organism (Table 2). Particulars: Pseudomonas aeruginosa.
Assay [8] deals with B. fragilis A 21916. The assay is described as follows: In vitro activity against anaerobes (MIC), two-fold serial agar dilution, GAM agar. The assay is classed as cell-based. The following applies: Bacteroides fragilis, A21916, Gn, Beta-Lactamase(-).
Assay [9] deals with B. fragilis A 22534. The description is as above. The class given is cell-based. The following applies: Bacteroides fragilis, A22534, Gn, Beta-Lactamase(+).
For assay [10], the system named is C. perfringens A9635. The assay is described as follows: microbe, parasite or virus in culture. The class given is cell-based. The following applies: Clostridium perfringens.
In assay [11] the test system is B. fragilis CUH-108. The experiment in a line: In vitro activity against anaerobes (MIC), two-fold serial agar dilution, GAM agar. The class given is cell-based. The following applies: Bacteroides fragilis, CUH108, Gn, Beta-Lactamase(+), Clindamycin-resistant. The procedure:
In vitro activity against anaerobic bacteria was determined on eight strains of B. fragilis by two-fold serial agar dilution method in GAM agar.

In assay [12] the test system is E. coli Juhl. The assay is described as follows: MIC against the infecting organism (Table 2). The following applies: Escherichia coli.
Assay [13] has as its system Cephalothin (CET)sensitive E. coli(2), Kl. pneumoniae(1) and Pr. mirabilis(2). The assay is described as follows: MIC, two-fold serial agar dilution, Mueller-Hinton agar (geometric mean, group Gn-Ia). The class given is cell-based. The following applies: 5 strains. On the procedure: as §1
GnIa: Cephalothin (CET)sensitive E. coli(2)*, Kl. pneumoniae(1) and Pr.

In assay [14] the test system is Ps. aeruginosa (7). The assay is described as follows: MIC, two-fold serial agar dilution, Mueller-Hinton agar (geometric mean, group Gn-III). The class given is cell-based. The following applies: Pseudomonas aeruginosa, 7 strains. The procedure:
as §1
GnIII: Ps. aeruginosa (7)

Assay [15] has as its system C. difficile A 21675. The assay is described as follows: In vitro activity against anaerobes (MIC). The class given is cell-based. The following applies: Clostridioides difficile, A21675, Gp, Clindamycin-resistant.
The subject of assay [16] is B. fragilis A 22695. The experiment in a line: In vitro activity against anaerobes (MIC), two-fold serial agar dilution, GAM agar. The assay is classed as cell-based. Particulars: Bacteroides fragilis, A22695, Gn, Beta-Lactamase(+).
The subject of assay [17] is M. morganii(1), Ent. cloacae(2), and Ser. marcescens(2). The assay is described as follows: MIC, two-fold serial agar dilution, Mueller-Hinton agar (geometric mean, group Gn-II). The following applies: 5 strains. The assay is classed as cell-based. On the procedure:
as §1
GnII: M. morganii(1), Ent. cloacae(2), and Ser. marcescens(2)

Assay [18] concerns E. coli Juhl. Particulars: Escherichia coli, in Mus musculus, im, read-out: PD50.
Assay [19] has as its system CETresistant E. coli(3), and Kl. pneumoniae(2). The experiment in a line: MIC, two-fold serial agar dilution, Mueller-Hinton agar (geometric mean, group Gn-Ib). The assay is classed as cell-based. Particulars: Escherichia coli, read-out: Geometric Mean of MIC, Gn-Ib. The procedure: as §1
GnIb: CETresistant E. coli(3), and Kl. pneumoniae(2)

Assay [20] concerns Penicillin (PC)sensitive S. (5 strains). The experiment in a line: MIC, two-fold serial agar dilution, Mueller-Hinton agar (geometric mean, group Gp-Ia). The assay is classed as cell-based, S. aureus. Particulars: Staphylococcus aureus. On the procedure: as §1
Gp-Ia: Penicillin (PC)sensitive S.

In assay [21] the test system is P. acnes A 21933. The assay is described as follows: In vitro activity against anaerobes (MIC). The class given is cell-based. Particulars: Cutibacterium acnes, A21933, Gp.
Assay [22] relates to S. aureus Smith. The experiment in a line: MIC against the infecting organism (Table 2). The following applies: Staphylococcus aureus.

≈ marks a conversion by molar mass, not a printed value.

Consider `CO/N=C(\C(=O)NC1C(=O)N2C(C(=O)O)=C(/C=C/COC(=O)c3ccc(O)c(O)c3)CS[C@H]12)c1nsc(N)n1` (stereo partly drawn) [Ib, 7-[(Z)-2-(5-Amino-1,2,4-thiadiazol-3-yl)-2-methoxyiminoacetamido]-3-[(E)-3-(3,4-dihydroxybenzoyloxy)-1-propen-1-yl]-3-cephem-4carboxylic acid], for which the MIC in [1] is above 50 µg/mL; in assay [2] it was 3.1 µg/mL (≈ 5.38 µM); in assay [4] it was 0.2 µg/mL (≈ 0.347 µM); in [5], 3.1 µg/mL (≈ 5.38 µM); in assay [6] it was 3.1 µg/mL (≈ 5.38 µM); in assay [7], 0.4 µg/mL (≈ 0.694 µM). Further, the MIC in assay [8] was 12.5 µg/mL (≈ 21.7 µM); in assay [9], above 50 µg/mL; in [10], 0.4 µg/mL (≈ 0.694 µM); in assay [11] it was above 50 µg/mL; in assay [12] it was 0.1 µg/mL (≈ 0.173 µM); in assay [13], 0.022 µg/mL (≈ 0.0382 µM). Besides, the MIC in assay [14] was found to be 0.49 µg/mL (≈ 0.85 µM); in assay [15], 25 µg/mL (≈ 43.4 µM); in assay [16], 25 µg/mL (≈ 43.4 µM); in assay [17], 0.53 µg/mL (≈ 0.919 µM); in assay [19], 0.026 µg/mL (≈ 0.0451 µM); in [20], 3.4 µg/mL (≈ 5.9 µM). The same compound yielded an MIC in assay [21] of 0.8 µg/mL (≈ 1.39 µM). Moreover, the ED50 was 0.68 mg/kg in [3] and 0.037 mg/kg in assay [18].

With `CC(C)(O/N=C(\C(=O)NC1C(=O)N2C(C(=O)O)=C(/C=C/COC(=O)c3ccc(O)c(O)c3)CS[C@H]12)c1csc(N)n1)C(=O)O` (stereo partly drawn) [Ic, 7-[(Z)-2-(2-Aminothiazol-4-yl)-2-(1-carboxy-1-methylethoxyimino)acetamido]-3-[(E)-3-(3,4-dihydroxybenzoyloxy)-1-propen-1yl]-3-cephem-4-carboxylic acid], the MIC was above 100 µg/mL in assay [1]; 13 µg/mL (≈ 20.1 µM) in [2]; 0.2 µg/mL (≈ 0.309 µM) in assay [4]; 3.1 µg/mL (≈ 4.79 µM) in assay [5]; 0.8 µg/mL (≈ 1.24 µM) in assay [6]; 0.2 µg/mL (≈ 0.309 µM) in assay [7]. For the same compound, the MIC is 0.8 µg/mL (≈ 1.24 µM) in [8]; above 100 µg/mL in [9]; 0.4 µg/mL (≈ 0.618 µM) in assay [10]; 12.5 µg/mL (≈ 19.3 µM) in [11]; 12.5 µg/mL (≈ 19.3 µM) in [22]; 0.2 µg/mL (≈ 0.309 µM) in [12]. In addition, the MIC was found to be 0.022 µg/mL (≈ 0.034 µM) in assay [13]; 0.82 µg/mL (≈ 1.27 µM) in assay [14]; 50 µg/mL (≈ 77.2 µM) in assay [15]; 3.1 µg/mL (≈ 4.79 µM) in assay [16]; 0.17 µg/mL (≈ 0.262 µM) in [17]; 0.019 µg/mL (≈ 0.0293 µM) in assay [19]. Besides, the MIC in assay [20] amounted to 8.3 µg/mL (≈ 12.8 µM); in assay [21] it was 0.8 µg/mL (≈ 1.24 µM). Further, the ED50 in assay [3] was determined as 2.2 mg/kg; in assay [18], 0.062 mg/kg.

Consider `CO/N=C(\C(=O)NC1C(=O)N2C(C(=O)O)=C(/C=C/COC(=O)Nc3ccc(O)c(O)c3)CSC12)c1csc(N)n1` (stereo not drawn) [Ie, 7-[(Z)-2-(2-Aminothiazol-4-yl)-2-methoxyiminoacetamido]-3-[(E)-3-(N-3,4-dihyroxyphenyl)carbamoyloxy-1-propen-1-yl]-3-cephem-4-carboxylic acid], for which the MIC is above 100 µg/mL in assay [1]; 7.2 µg/mL (≈ 12.2 µM) in assay [2]; 0.4 µg/mL (≈ 0.677 µM) in assay [4]; 3.1 µg/mL (≈ 5.25 µM) in [5]; 3.1 µg/mL (≈ 5.25 µM) in assay [6]; 6.3 µg/mL (≈ 10.7 µM) in [8]. The MIC in assay [9] is above 100 µg/mL; in assay [10], 1.6 µg/mL (≈ 2.71 µM); in assay [11], 100 µg/mL (≈ 169 µM); in assay [13] it was 0.23 µg/mL (≈ 0.389 µM); in assay [14], 50 µg/mL (≈ 84.7 µM); in [15], 50 µg/mL (≈ 84.7 µM). Besides, the MIC came out at 25 µg/mL (≈ 42.3 µM) in [16]; 3.6 µg/mL (≈ 6.1 µM) in assay [17]; 0.46 µg/mL (≈ 0.779 µM) in [19]; 6.3 µg/mL (≈ 10.7 µM) in assay [20]; 1.6 µg/mL (≈ 2.71 µM) in [21].
